Laboratory results taken from US5053070A, “Pyrimidine derivatives, preparation processes thereof, herbicide containing the same, and herbicidal compositions containing the same along with other active ingredient” (Mitsui Toatsu Chemicals, Incorporated, priority 1988, dated 1991).

What was measured:
[1] = system: ALS (acetolactate syntase); assay: ALS enzyme assay (Test 1); assay type: biochemical, pea; details: 1,000 ppm (0.5 mg/0.5 ml)
Protocol: (§1) To determine the selectivity in enzyme level between crops and weeds, and ALS enzyme assay was conducted using pea as a representative of broadleaf crops and barnyardgrass as a representative of narrowleaf weeds.
(§2) After seeds of pea and barnyardgrass were allowed to germinate at 25° C. for 8-14 days in a dark place, partially-purified suspensions (Suspensions A) of acetolactate syntase were separately obtained from seedlings in accordance with the method described in the literature, Plant Physiology, 75, 827-831.
(§3) In a test tube, 0.5 mg of one of test compounds was weighed, followed by the addition of 0.15 ml of a 20 mM K2 HPO4 solution and 0.25 ml of a reaction substrate medium which consisted of 40 mM of K2 HPO4, 40 mM of sodium pyruvate, 1 mM of TPP, 1 mM of MgCl2 and 20 μM of FAD so that 0.4 ml of a reaction solution (Solution B) was prepared. Added to 0.4 ml of Solution B was 0.1 ml of suspension A. After the resultant mixture was shaken for 1 hour in a thermostat water bath controlled at 30° C., 50 μl of 6N sulfuric acid were added to terminate the reaction.
(§4) Next, the reaction-terminated liquid mixture was transferred into a thermostat water bath controlled at 60° C. and was heated for 15 minutes. Thereafter, 0.5 ml of a 0.5% creatine solution and 0.5 ml of a 5% alkaline α-naphthol solution were added, and the resultant mixture was maintained at 60° C. for 15 minutes. As a result, the test solution developed a pink-red color. After the above operation, the absorbance of the test solution at 525 nm was measured by a spectrophotometer (Absorbance 1 of Test Compound).
(§5) On the other hand, the absorbance (Absorbance 2 of Blank) of a solution obtained by subjecting a portion of Solution B, said portion being free of the test compound, to the above operation and the absorbance (Absorbance 3 of sulfuric acid terminated) of another solution obtained by subjecting another portion of Solution B, said portion containing 50 μl of 6N sulfuric acid as a test compound, were measured at the same time. Based on the values of the respective measurements, the enzyme assay at 1,000 ppm (0.5 mg/0.5 ml) of each compound was determined. [formula]

[2] = system: redroot pigweed; assay: Upland soil application test (Test 2); assay type: in vivo; details: 30 g ai/a, soil spray before emergence, 30 days later
Protocol: (§6) Resin-made 1/2500-are pots were filled with the soil of an upland field. After they were fertilized, soybean, peanut and cotton were seeded and 2-3 cm soil covering was applied. Seeds of redroot pigweed, common lambsquarters, barnyardgrass, green foxtail, large crabgrass, foxtail meadow and johnsongrass had been uniformly mixed with the soil. They were allowed to germinate in a green house. One day later (before emergence of weeds), a wettable powder prepared from a predetermined amount of each test compound in a similar manner to the method described in Formulation Example 1 was diluted with water and then sprayed evenly at an application rate equal to 10 l per are onto the surface of the soil by means of a pressure-operated ULV (ultra low volume) sprayer. Influence to the crops and weeds were observed 30 days later. The results are shown in Table 3, in which the degree of damages of each test plant and the degree of injury to each crop were determined by comparing the air-dried weights of the test plant and crop with those of the corresponding plant and crop in untreated pots and are shown in accordance with the following standard: […]

[3] = system: barnyardgrass; assay: Upland soil application test (Test 2); assay type: in vivo; details: 30 g ai/a, soil spray before emergence, 30 days later
Protocol: as §6

[4] = system: common lambsquarters; assay: Upland soil application test (Test 2); assay type: in vivo; details: 30 g ai/a, soil spray before emergence, 30 days later
Protocol: as §6

[5] = system: johnsongrass; assay: Upland soil application test (Test 2); assay type: in vivo; details: 30 g ai/a, soil spray before emergence, 30 days later
Protocol: as §6

[6] = system: foxtail meadow; assay: Upland soil application test (Test 2); assay type: in vivo; details: 30 g ai/a, soil spray before emergence, 30 days later
Protocol: as §6

[7] = system: green foxtail; assay: Upland soil application test (Test 2); assay type: in vivo; details: 30 g ai/a, soil spray before emergence, 30 days later
Protocol: as §6

[8] = system: large crabgrass; assay: Upland soil application test (Test 2); assay type: in vivo; details: 30 g ai/a, soil spray before emergence, 30 days later
Protocol: as §6

[9] = system: ALS (acetolactate syntase); assay: ALS enzyme assay (Test 1); assay type: biochemical, barnyardgrass; details: 1,000 ppm (0.5 mg/0.5 ml)
Protocol: as §1, §2, §3, §4, §5

[10] = system: soybean; assay: Upland soil application test (Test 2), crop injury; assay type: in vivo; details: 30 g ai/a, soil spray before emergence, 30 days later
Protocol: as §6

[11] = system: cotton; assay: Upland soil application test (Test 2), crop injury; assay type: in vivo; details: 30 g ai/a, soil spray before emergence, 30 days later
Protocol: as §6

[12] = system: peanut; assay: Upland soil application test (Test 2), crop injury; assay type: in vivo; details: 30 g ai/a, soil spray before emergence, 30 days later
Protocol: as §6

COC(=O)c1ccccc1Oc1nc(OC)cc(OC)n1 [A, reference compound]
Inhibitory activity (%) Pea [1]: 72%
Herbicidal effects Redroot pigweed [2]: 5 (0-5 (Death))
Herbicidal effects Barnyardgrass [3]: 5 (0-5 (Death))
Herbicidal effects Common lambsquarters [4]: 4 (6-10 (Severe damages))
Herbicidal effects Johnsongrass [5]: 5 (0-5 (Death))
Herbicidal effects Foxtail meadow [6]: 5 (0-5 (Death))
Herbicidal effects Green foxtail [7]: 5 (0-5 (Death))
Herbicidal effects Large crabgrass [8]: 5 (0-5 (Death))
Inhibitory activity (%) Barnyardgrass [9]: 73%
Injury Soybean [10]: 5 (0-5 (Death))
Injury Cotton [11]: 5 (0-5 (Death))
Injury Peanut [12]: 5 (0-5 (Death))

COc1cc(OC)nc(Oc2ccccc2C=O)n1 [B, reference compound]
Inhibitory activity (%) Pea [1]: 92%
Herbicidal effects Redroot pigweed [2]: 3 (11-40 (Medium damages))
Herbicidal effects Barnyardgrass [3]: 4 (6-10 (Severe damages))
Herbicidal effects Common lambsquarters [4]: 3 (11-40 (Medium damages))
Herbicidal effects Johnsongrass [5]: 4 (6-10 (Severe damages))
Herbicidal effects Foxtail meadow [6]: 4 (6-10 (Severe damages))
Herbicidal effects Green foxtail [7]: 4 (6-10 (Severe damages))
Herbicidal effects Large crabgrass [8]: 4 (6-10 (Severe damages))
Inhibitory activity (%) Barnyardgrass [9]: 98%
Injury Soybean [10]: 5 (0-5 (Death))
Injury Cotton [11]: 5 (0-5 (Death))
Injury Peanut [12]: 5 (0-5 (Death))

CON=Cc1ccccc1Oc1nc(OC)cc(OC)n1 [Compound No. 1, O-methyl--2-(4,6-dimethoxy-2-pyrimidinyloxy)benzaldoxime]
Inhibitory activity (%) Pea [1]: 3%
Herbicidal effects Redroot pigweed [2]: 5 (0-5 (Death))
Herbicidal effects Barnyardgrass [3]: 5 (0-5 (Death))
Herbicidal effects Common lambsquarters [4]: 4 (6-10 (Severe damages))
Herbicidal effects Johnsongrass [5]: 5 (0-5 (Death))
Herbicidal effects Foxtail meadow [6]: 5 (0-5 (Death))
Herbicidal effects Green foxtail [7]: 5 (0-5 (Death))
Herbicidal effects Large crabgrass [8]: 4 (6-10 (Severe damages))
Inhibitory activity (%) Barnyardgrass [9]: 58%
Injury Soybean [10]: 0 (91-100 (No damages))
Injury Cotton [11]: 0 (91-100 (No damages))
Injury Peanut [12]: 0 (91-100 (No damages))

C=CC(C)ON=Cc1ccccc1Oc1nc(OC)cc(OC)n1 (centres unmarked) [Compound No. 2]
Inhibitory activity (%) Pea [1]: 0%
Herbicidal effects Redroot pigweed [2]: 4 (6-10 (Severe damages))
Herbicidal effects Barnyardgrass [3]: 5 (0-5 (Death))
Herbicidal effects Common lambsquarters [4]: 4 (6-10 (Severe damages))
Herbicidal effects Johnsongrass [5]: 5 (0-5 (Death))
Herbicidal effects Foxtail meadow [6]: 5 (0-5 (Death))
Herbicidal effects Green foxtail [7]: 5 (0-5 (Death))
Herbicidal effects Large crabgrass [8]: 5 (0-5 (Death))
Inhibitory activity (%) Barnyardgrass [9]: 21%
Injury Soybean [10]: 0 (91-100 (No damages))
Injury Cotton [11]: 0 (91-100 (No damages))
Injury Peanut [12]: 0 (91-100 (No damages))

C=CCON=Cc1ccccc1Oc1nc(OC)cc(OC)n1 [Compound No. 4]
Inhibitory activity (%) Pea [1]: 0%
Herbicidal effects Redroot pigweed [2]: 4 (6-10 (Severe damages))
Herbicidal effects Barnyardgrass [3]: 5 (0-5 (Death))
Herbicidal effects Common lambsquarters [4]: 3 (11-40 (Medium damages))
Herbicidal effects Johnsongrass [5]: 5 (0-5 (Death))
Herbicidal effects Foxtail meadow [6]: 5 (0-5 (Death))
Herbicidal effects Green foxtail [7]: 5 (0-5 (Death))
Herbicidal effects Large crabgrass [8]: 4 (6-10 (Severe damages))
Inhibitory activity (%) Barnyardgrass [9]: 59%
Injury Soybean [10]: 0 (91-100 (No damages))
Injury Cotton [11]: 0 (91-100 (No damages))
Injury Peanut [12]: 0 (91-100 (No damages))

COc1cc(OC)nc(Oc2ccccc2C=NOCc2ccc(Cl)cc2Cl)n1 [Compound No. 17]
Inhibitory activity (%) Pea [1]: 0%
Herbicidal effects Redroot pigweed [2]: 3 (11-40 (Medium damages))
Herbicidal effects Barnyardgrass [3]: 3 (11-40 (Medium damages))
Herbicidal effects Common lambsquarters [4]: 4 (6-10 (Severe damages))
Herbicidal effects Johnsongrass [5]: 3 (11-40 (Medium damages))
Herbicidal effects Foxtail meadow [6]: 3 (11-40 (Medium damages))
Herbicidal effects Green foxtail [7]: 3 (11-40 (Medium damages))
Herbicidal effects Large crabgrass [8]: 3 (11-40 (Medium damages))
Inhibitory activity (%) Barnyardgrass [9]: 15%
Injury Soybean [10]: 0 (91-100 (No damages))
Injury Cotton [11]: 0 (91-100 (No damages))
Injury Peanut [12]: 0 (91-100 (No damages))

COc1cc(OC)nc(Oc2ccccc2C=NOCC=Cc2cccc(Cl)c2)n1 [Compound No. 26, 0-(3-chlorocinnamyl)-2-(4,6-dimethoxy-2-pyrimidinyloxy)benzaldxime]
Inhibitory activity (%) Pea [1]: 8%
Herbicidal effects Redroot pigweed [2]: 5 (0-5 (Death))
Herbicidal effects Barnyardgrass [3]: 5 (0-5 (Death))
Herbicidal effects Common lambsquarters [4]: 4 (6-10 (Severe damages))
Herbicidal effects Johnsongrass [5]: 5 (0-5 (Death))
Herbicidal effects Foxtail meadow [6]: 4 (6-10 (Severe damages))
Herbicidal effects Green foxtail [7]: 5 (0-5 (Death))
Herbicidal effects Large crabgrass [8]: 5 (0-5 (Death))
Inhibitory activity (%) Barnyardgrass [9]: 89%
Injury Soybean [10]: 0 (91-100 (No damages))
Injury Cotton [11]: 0 (91-100 (No damages))
Injury Peanut [12]: 0 (91-100 (No damages))

C=C(C)CON=Cc1ccccc1Oc1nc(OC)cc(OC)n1 [compound 5]
Inhibitory activity (%) Pea [1]: 0%
Herbicidal effects Redroot pigweed [2]: 4 (6-10 (Severe damages))
Herbicidal effects Barnyardgrass [3]: 5 (0-5 (Death))
Herbicidal effects Common lambsquarters [4]: 4 (6-10 (Severe damages))
Herbicidal effects Johnsongrass [5]: 5 (0-5 (Death))
Herbicidal effects Foxtail meadow [6]: 5 (0-5 (Death))
Herbicidal effects Green foxtail [7]: 5 (0-5 (Death))
Herbicidal effects Large crabgrass [8]: 5 (0-5 (Death))
Inhibitory activity (%) Barnyardgrass [9]: 64%
Injury Soybean [10]: 0 (91-100 (No damages))
Injury Cotton [11]: 0 (91-100 (No damages))
Injury Peanut [12]: 0 (91-100 (No damages))

CC=CCON=Cc1ccccc1Oc1nc(OC)cc(OC)n1 [compound 8]
Inhibitory activity (%) Pea [1]: 0%
Herbicidal effects Redroot pigweed [2]: 5 (0-5 (Death))
Herbicidal effects Barnyardgrass [3]: 4 (6-10 (Severe damages))
Herbicidal effects Common lambsquarters [4]: 4 (6-10 (Severe damages))
Herbicidal effects Johnsongrass [5]: 5 (0-5 (Death))
Herbicidal effects Foxtail meadow [6]: 5 (0-5 (Death))
Herbicidal effects Green foxtail [7]: 5 (0-5 (Death))
Herbicidal effects Large crabgrass [8]: 4 (6-10 (Severe damages))
Inhibitory activity (%) Barnyardgrass [9]: 41%
Injury Soybean [10]: 0 (91-100 (No damages))
Injury Cotton [11]: 0 (91-100 (No damages))
Injury Peanut [12]: 0 (91-100 (No damages))

COc1cc(OC)nc(Oc2ccccc2C=NOCc2ccc(Cl)c(Cl)c2)n1 [compound 18]
Inhibitory activity (%) Pea [1]: 0%
Herbicidal effects Redroot pigweed [2]: 3 (11-40 (Medium damages))
Herbicidal effects Barnyardgrass [3]: 4 (6-10 (Severe damages))
Herbicidal effects Common lambsquarters [4]: 4 (6-10 (Severe damages))
Herbicidal effects Johnsongrass [5]: 3 (11-40 (Medium damages))
Herbicidal effects Foxtail meadow [6]: 3 (11-40 (Medium damages))
Herbicidal effects Green foxtail [7]: 4 (6-10 (Severe damages))
Herbicidal effects Large crabgrass [8]: 3 (11-40 (Medium damages))
Inhibitory activity (%) Barnyardgrass [9]: 14%
Injury Soybean [10]: 0 (91-100 (No damages))
Injury Cotton [11]: 0 (91-100 (No damages))
